Test results reported in patent US11523995B2, “Compositions and methods for ablating niche cells in testis and other epithelial cells and methods relating thereto” (Duke University, priority 2017, dated 2022).

System: Sertoli cells
Assay: Inhibition of in vitro Sertoli cell ablation with BC by cell death pathway inhibitors
Format: cell-based, mouse
Details: 30 min inhibitor pre-treatment, 10 min BC, culture with inhibitor 4 days, neonatal testis
Procedure: Fragments of the mouse testis were incubated with 0.02% BC for 10 min. After washing several times with PBS, tissues were placed atop 1.5% agarose blocks (214530; Difco), prepared and placed in 6 well tissue culture plates (353046; Falcon) with ˜500 μl of 10% FBS+DMEM (11995-065; Gibco) to reach halfway up the side of the block. After culture, tissues were washed in PBS and fixed for immunofluorescence. The dog testis tissues were incubated with 0.02% or 0.03% BC for 10 min and cultured with 10% KnockOut Serum Replacement (KSR) (Invitrogen; 10828-028)+DMEM (Yokonishi, T., et al. Methods in Molecular Biology 927: 479-488 (2013)). The culture incubator was supplied with 5% (vol/vol) carbon dioxide in air and maintained at 37° C. Q-VD (OMe)-OPh (A8165; ApexBio), Necrostatin-1, Spautin-1 (Sigma; SML0440), 3-Methyladenine (Cayman; CAS 5142-23-4), LY294002 (Cayman; CAS 154447-36-6), Bafilomycin A1 (Cayman; CAS88899-55-2) were used as cell death inhibitors. Next, we investigated the Sertoli cell death pathway caused by BC treatment. Testes from neonatal pups were pre-treated with 1% DMSO (as a control) or with cell death pathway inhibitors, pan-caspase inhibitor, 2,6-difluorophenoxymethylketone-based inhibitor (Q-VD-OPH), necrosis inhibitor (Necrostatin-1) and autophagy inhibitors, Spautin-1, LY294002, or Bafilomycin A1, for 30 min. Pre-treatments were followed by a 10 min BC treatment, washing, and culture in the presence of the inhibitor for 4 days (FIG. 3).

Q: With `Cn1cnc(N)c2ncnc1-2` [3MA, 3-Methyladenine] as the compound, how does the “rescue of Sertoli cells after BC treatment” value (shortened to “rescue of Sertoli cells”) read?
A: partially rescued Sertoli cells

Q: For `CO/C1=C\C(C)=C\[C@@H](C)[C@@H](O)[C@@H](C)C/C(C)=C/C=C/[C@H](OC)[C@@H]([C@@H](C)[C@@H](O)[C@H](C)[C@@]2(O)C[C@@H](O)[C@H](C)[C@@H](C(C)C)O2)OC1=O` [Bafilomycin A1], which “rescue of Sertoli cells” value is on record?
A: partially rescued Sertoli cells

Q: With `CN1C(=O)C(Cc2c[nH]c3ccccc23)NC1=S` (centres unmarked) [Necrostatin-1] as the compound, how does the “rescue of Sertoli cells” value read?
A: did not rescue Sertoli cells

Q: For `COC(=O)C[C@H](NC(=O)[C@@H](NC(=O)c1ccc2ccccc2n1)C(C)C)C(=O)COc1c(F)cccc1F` [Q-VD-OPH], which “rescue of Sertoli cells” value is on record?
A: did not rescue Sertoli cells

Q: `Fc1ccc(CNc2ncnc3ccc(F)cc23)cc1` [Spautin-1] was tested. Which “rescue of Sertoli cells” value did it give?
A: partially rescued Sertoli cells
